For one test, the target named is T1, Class A ESBL CTXM-15 (Escherichia coli, UniProt Q9EXV5).
T1 construct: made in house; host or cells: E. coli BL21(DE3)
The test is described as follows: β-lactamase enzyme inhibition (nitrocefin hydrolysis), CTXM-15. Conditions: purified enzyme; nitrocefin 100 μM, PBS pH 7.0; read-out: CTXM-15 IC50 Range. Type of test: biochemical. The protocol:
(§1) Isolation of β-lactamases. For all examples, purified beta-lactamase enzymes were used to measure a compounds' ability to inhibit the Class A ESBL CTXM-15, the Class C P99 AmpC and the Class A carbapenemase KPC-2. […] The enzyme preparations are described herein.
(§2) For the isolation and purification of SHV-5, p99 AmpC, KPC-2 and CTX-M15 β-lactamases, E. coli BL21(DE3) bacterial cells carrying expression plasmids (expressed as native untagged proteins) for the individual β-lactamases were grown in 1 L of Superbroth (Teknova Inc. Hollister, Calif.) supplemented with 100 μg/ml kanamycin and 1×5052 (0.5% glycerol, 0.05% glucose and 0.2% α-lactose) at 35° C. for 18-20 hours. Cells were harvested by centrifugation (4,000×g, 4° C., 20 min), and resuspended in 50 ml of 10 mM HEPES pH 7.5 ( 1/20 of the initial volume). The cells were lysed by sonication (5 pulses of 45 seconds) at 45 W on ice. The lysates were clarified by centrifugation at 10,000×g for 40 minutes at 4° C. Samples were diluted 5-fold in 50 mM sodium acetate pH 5.0, stored overnight at 4° C., after which they were centrifuged at 10,000×g for 30 minutes to clarify, and filtered through 0.45 μm filters. The samples were loaded onto a 5 ml Capto S sepharose cation exchange column (GE Healthcare) pre-equilibrated with 50 mM sodium acetate pH 5.0. The column was washed with 5 column volumes of 50 mM sodium acetate pH 5.0 to wash out unbound protein and a linear gradient of NaCl (0 to 500 mM) was used to elute the protein (over 16 CV) from the column. Fractions were assayed for β-lactamase activity using Centa (Calbiochem, Gibbstown, N.J.) as a reporter β-lactamase substrate for activity in the isolated fractions. Active fractions were pooled, concentrated and further purified by gel filtration chromatography on a Superdex 75 prep grade gel filtration column (GE Healthcare, Piscataway, N.J.) pre-equilibrated in 50 mM Hepes pH 7.5, 150 mM NaCl. Active fractions were pooled concentrated, quantitated by BCA protein determination (Thermo Scientific, Rockford, Ill.), and frozen at −80° C. in 20% glycerol until use.
(§3) β-lactamase Inhibition. To determine the level of inhibition of β-lactamaseenzymes, compounds were diluted in PBS at pH 7.0 to yield concentrations between 100 and 0.005 μM in microtiter plates. An equal volume of diluted enzyme stock was added, and the plates were incubated at 37° C. for 10 min. Nitrocefin solution was then dispensed as substrate into each well at a final concentration of 100 μM, and the plates were immediately read with the kinetic program at 486 nm for 10 min on the SPECTRAMAX® Plus^384 (high-throughput microplate spectrophotometer; Molecular Devices Corp., Sunnyvale, Calif.). Maximum rates of metabolism were then compared to those in control wells (without inhibitors), and percentages of enzyme inhibition were calculated for each concentration of inhibitor. The concentration of inhibitor needed to reduce the initial rate of hydrolysis of substrate by 50% (IC50) was calculated as the residual activity of β-lactamase at 486 nm using the SoftMax Pro 5.0 software (Molecular Devices Corp.).

Test [1] has as its system K. pneumoniae expressing the Class A ESBL CTX-M-15. The test is described as follows: microbe, parasite or virus in culture. Type of test: cell-based. Conditions: in the presence of fixed 8 μg/mL Ceftazidime. The source says: To determine the ability of test compounds to potentiate the inhibition of the growth of bacterial strains producing beta-lactamase enzymes, classic cell based screening assays were employed. Four bacteria strains producing beta-lactamase enzymes were used: K. pneumoniae expressing the Class A Extended Spectrum Beta-Lactamase (ESBL) CTX-M-15, E. coli expressing the Class A ESBL SHV-5, E. cloacae expressing the Class C P99+, and K. pneumoniae expressing the Class A carbapenemase KPC-2. In order to evaluate the ability of test compounds to inhibit beta-lactamase activity, Applicants used a modification of the broth microdilution assay. The assay was conducted in Cation Adjusted Mueller Hinton Broth (CAMHB, BD # 212322, BD Diagnostic Systems, Sparks, Md.). Bacteria strains were grown for 3-5 hours in CAMBH broth. All four strains were grown in presence of 50 μg/mL ampicillin to ensure resistance is maintained. In the meantime, test compounds were diluted in DMSO to a 0.1 mg/mL stock. The compounds were added to a microtiter plate and were diluted in 2-fold serial dilutions in CAMHB in a final concentration range of 8 μg/mL to 0.015 μg/ml. […] […] Each of these compound plates are made in quadruplicate, one for each bacteria strain. In addition to the titration of test compounds the MICs of a panel of cephalosporins is also tested to ensure the strains are behaving consistently from test to test. Once the test compound and cephalosporin are added the plates can be inoculated. Inocula are conducted according to CLSI broth microdilution method. After inoculation the plates are incubated for 16-20 hours at 37° C. then the Minimal Inhibitory Concentration (MIC) of the test compound is determined visually.

Test [2] deals with K. pneumoniae expressing the Class A carbapenemase KPC-2. Kind of test: microbe, parasite or virus in culture. Conditions: in the presence of fixed 8 μg/mL Ceftazidime. The text has this: To determine the ability of test compounds to potentiate the inhibition of the growth of bacterial strains producing beta-lactamase enzymes, classic cell based screening assays were employed. Four bacteria strains producing beta-lactamase enzymes were used: K. pneumoniae expressing the Class A Extended Spectrum Beta-Lactamase (ESBL) CTX-M-15, E. coli expressing the Class A ESBL SHV-5, E. cloacae expressing the Class C P99+, and K. pneumoniae expressing the Class A carbapenemase KPC-2. In order to evaluate the ability of test compounds to inhibit beta-lactamase activity, Applicants used a modification of the broth microdilution assay. The assay was conducted in Cation Adjusted Mueller Hinton Broth (CAMHB, BD # 212322, BD Diagnostic Systems, Sparks, Md.). Bacteria strains were grown for 3-5 hours in CAMBH broth. All four strains were grown in presence of 50 μg/mL ampicillin to ensure resistance is maintained. In the meantime, test compounds were diluted in DMSO to a 0.1 mg/mL stock. The compounds were added to a microtiter plate and were diluted in 2-fold serial dilutions in CAMHB in a final concentration range of 8 μg/mL to 0.015 μg/ml. An overlay of CAMHB containing a cephalosporin was added to the compounds at a final static concentration of 8 μg/ml. […] Each of these compound plates are made in quadruplicate, one for each bacteria strain. In addition to the titration of test compounds the MICs of a panel of cephalosporins is also tested to ensure the strains are behaving consistently from test to test. Once the test compound and cephalosporin are added the plates can be inoculated. Inocula are conducted according to CLSI broth microdilution method. After inoculation the plates are incubated for 16-20 hours at 37° C. then the Minimal Inhibitory Concentration (MIC) of the test compound is determined visually.

A further test deals with T2, Class A ESBL SHV-5 (Klebsiella pneumoniae, UniProt P0A3M1).
T2 construct: made in house; host or cells: E. coli BL21(DE3) for purified enzyme; E. coli cells containing SHV-5 for extracts
T2 sequence (P0A3M1 22-286): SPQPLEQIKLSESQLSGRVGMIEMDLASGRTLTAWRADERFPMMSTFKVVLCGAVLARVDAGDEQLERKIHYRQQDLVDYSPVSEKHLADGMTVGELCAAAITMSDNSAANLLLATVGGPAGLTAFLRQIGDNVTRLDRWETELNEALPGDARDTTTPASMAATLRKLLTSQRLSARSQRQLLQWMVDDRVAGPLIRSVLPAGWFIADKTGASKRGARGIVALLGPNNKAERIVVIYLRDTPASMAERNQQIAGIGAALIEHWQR
Type of test: biochemical, E. coli. Conditions: nitrocefin 100 μM, PBS pH 7.0, read-out: SHV-5 IC50 Range. The protocol:
as §1
For the preparation of SHV-5 extracts, E. coli cells containing SHV-5 were cultured overnight with shaking at a volume of 20 mL. They were further diluted 10-fold and grown to mid-log phase (OD at 600 nm, 0.5-0.8) in Mueller-Hinton II (MH-II) broth at 37° C. The cells were pelleted at 5000 g, washed and resuspended in 2 mL PBS pH 7.0. The β-lactamase was extracted by four cycles of freezing and thawing followed by centrifugation. β-lactamase activity in the extract was measured with the chromogenic cephalosporin nitrocefin. The amount of protein in each β-lactamase preparation was determined by the bicinchoninic acid (BCA) assay.
as §2, §3

The next test concerns the target T3, Class C P99 AmpC (Enterobacter cloacae, UniProt P05364).
T3 construct: made in house; host or cells: E. coli BL21(DE3)
Type of test: biochemical. The conditions noted are these: purified enzyme; nitrocefin 100 μM, PBS pH 7.0; read-out: P99 AmpC IC50 Range. The protocol: as §1, §2, §3

For test [3], the target named is T4, Class A carbapenemase KPC-2 (Klebsiella pneumoniae, UniProt Q9F663).
T4 construct: made in house; host or cells: E. coli BL21(DE3)
T4 sequence (Q9F663 25-293 limits assumed): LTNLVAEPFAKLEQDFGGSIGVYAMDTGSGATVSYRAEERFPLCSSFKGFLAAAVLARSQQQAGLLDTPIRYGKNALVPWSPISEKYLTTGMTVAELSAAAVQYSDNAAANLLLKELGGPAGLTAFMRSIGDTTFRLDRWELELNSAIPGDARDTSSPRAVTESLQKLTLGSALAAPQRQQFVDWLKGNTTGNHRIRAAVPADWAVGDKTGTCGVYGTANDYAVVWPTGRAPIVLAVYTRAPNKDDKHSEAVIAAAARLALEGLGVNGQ
The test is described as follows: β-lactamase enzyme inhibition (nitrocefin hydrolysis), KPC-2. Type of test: biochemical. Conditions: purified enzyme; nitrocefin 100 μM, PBS pH 7.0; read-out: KPC-2 IC50 Range. The protocol:
as §1, §2, §3

Where [4] appears, read: cellular extracts of E. coli containing SHV-5 (Examples 2-30).
Where [5] appears, read: purified beta-lactamase enzyme (Examples 1 and 31-64).

Like-named read-outs stand apart in the source and are kept apart here.

T1 sequence (Q9EXV5 entry or part of it): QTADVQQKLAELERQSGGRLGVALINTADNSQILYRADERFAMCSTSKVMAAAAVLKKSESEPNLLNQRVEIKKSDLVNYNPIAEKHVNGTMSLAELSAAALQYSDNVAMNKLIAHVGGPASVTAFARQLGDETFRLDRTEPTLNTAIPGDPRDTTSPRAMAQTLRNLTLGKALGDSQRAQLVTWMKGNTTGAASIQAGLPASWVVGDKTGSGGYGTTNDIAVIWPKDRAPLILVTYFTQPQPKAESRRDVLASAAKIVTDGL
T3 sequence (P05364 21-381): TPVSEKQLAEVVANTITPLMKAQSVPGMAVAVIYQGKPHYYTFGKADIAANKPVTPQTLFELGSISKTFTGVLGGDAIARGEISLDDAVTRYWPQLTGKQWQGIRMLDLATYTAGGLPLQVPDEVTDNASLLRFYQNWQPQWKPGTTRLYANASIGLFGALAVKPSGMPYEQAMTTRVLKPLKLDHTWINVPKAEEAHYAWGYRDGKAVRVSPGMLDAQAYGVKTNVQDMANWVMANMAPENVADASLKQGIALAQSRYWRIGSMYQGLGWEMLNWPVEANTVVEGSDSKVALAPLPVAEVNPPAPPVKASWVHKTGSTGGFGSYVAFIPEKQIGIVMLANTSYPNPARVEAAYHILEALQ

Turning to `O=C(N[C@@H](Cc1cccc(C(=O)O)c1O)B(O)O)c1cccc(O)c1` [Example 28, (1R)-1-(3-hydroxybenzoylamino)-2-(2-hydroxy-3-carboxyphenyl)ethyl-1-boronic acid], the IC50 at Class A ESBL CTXM-15 is under 10 nM; on Class A ESBL SHV-5 (setting [4]) it was 10 to 100 nM; on Class C P99 AmpC, under 10 nM; in test [3], 10 to 100 nM. Also, in test [1], the “MIC of example compound, K. pneumoniae CTX-M-15 + 8 μg/mL CAZ” value (“MIC … K. pneumoniae CTX-M-15 + 8 μg/mL CAZ” below) is on record as “C (C represents an MIC of <1 μg/mL)”. The “MIC of example compound, K. pneumoniae KPC-2 + 8 μg/mL CAZ” value (“MIC … K. pneumoniae KPC-2 + 8 μg/mL CAZ” below) in test [2] is “C (C represents an MIC of <1 μg/mL)”.

`O=C(N[C@@H](Cc1cccc(C(=O)O)c1O)B(O)O)c1ccc(Cl)nc1` [Example 31, (1R)-1-(6-Chloro-pyridine-3-carbonyl)-amino-1-(3-carboxy-2-hydroxy)benzyl-methylboronic acid]: the IC50 (at Class A ESBL CTXM-15; at Class A ESBL SHV-5 (setting [5]); at Class C P99 AmpC; in test [3]) was under 10 nM throughout. In addition, in test [1], the “MIC … K. pneumoniae CTX-M-15 + 8 μg/mL CAZ” value was “C (C represents an MIC of <1 μg/mL)”. Besides, in test [2], the “MIC … K. pneumoniae KPC-2 + 8 μg/mL CAZ” value is “C (C represents an MIC of <1 μg/mL)”.

Turning to `O=C(COCc1ccccc1)N[C@@H](Cc1cccc(C(=O)O)c1O)B(O)O` [Example 22, (1R)-1-(2-benzyloxyacetylamino)-2-(2-hydroxy-3-carboxyphenyl)ethyl-1-boronic acid], the IC50 at Class A ESBL CTXM-15 is under 10 nM; at Class A ESBL SHV-5 (setting [4]), under 10 nM; on Class C P99 AmpC, 10 to 100 nM; in test [3], under 10 nM. Besides, the “MIC … K. pneumoniae CTX-M-15 + 8 μg/mL CAZ” value in test [1] is “C (C represents an MIC of <1 μg/mL)”. In test [2], the “MIC … K. pneumoniae KPC-2 + 8 μg/mL CAZ” value is reported as “C (C represents an MIC of <1 μg/mL)”.

`O=C(Cn1cccn1)N[C@@H](Cc1cccc(C(=O)O)c1O)B(O)O` [Example 40, (1R)-1-(Pyrazol-1-yl-acetylamino)-2-(2-hydroxy-3-carboxyphenyl)ethyl-1-boronic acid]: the half-inhibitory concentration (IC50) (at Class A ESBL CTXM-15; at Class A ESBL SHV-5 (setting [5]); at Class C P99 AmpC; in test [3]) was 10 to 100 nM throughout. Besides, in test [1], the “MIC … K. pneumoniae CTX-M-15 + 8 μg/mL CAZ” value is “C (C represents an MIC of <1 μg/mL)”. In test [2], the “MIC … K. pneumoniae KPC-2 + 8 μg/mL CAZ” value was “C (C represents an MIC of <1 μg/mL)”.

Turning to `O=C(Cc1ccccn1)N[C@@H](Cc1cccc(C(=O)O)c1O)B(O)O.O=CO` [Example 61, (1R)-1-(2-Pyridylacetylamino)-2-(2-hydroxy-3-carboxyphenyl)ethyl-1-boronic acid formate salt], the 50% inhibitory concentration (IC50) at Class A ESBL CTXM-15 was under 10 nM; at Class A ESBL SHV-5 (setting [5]), under 10 nM; on Class C P99 AmpC it was under 10 nM; in test [3], 10 to 100 nM. Also, the “MIC … K. pneumoniae CTX-M-15 + 8 μg/mL CAZ” value in test [1] is “C (C represents an MIC of <1 μg/mL)”. Also, the “MIC … K. pneumoniae KPC-2 + 8 μg/mL CAZ” value in test [2] is recorded as “C (C represents an MIC of <1 μg/mL)”.

On to `CCCCCCC(=O)N[C@@H](Cc1cccc(C(=O)O)c1O)B(O)O` [Example 24, (1R)-1-(heptanoylamino)-2-(2-hydroxy-3-carboxyphenyl)ethyl-1-boronic acid], for which the 50% inhibitory concentration (IC50) at Class A ESBL CTXM-15 is under 10 nM; on Class A ESBL SHV-5 (setting [4]) it was under 10 nM; on Class C P99 AmpC, under 10 nM; in test [3], 10 to 100 nM. The “MIC … K. pneumoniae CTX-M-15 + 8 μg/mL CAZ” value in test [1] is listed as “C (C represents an MIC of <1 μg/mL)”. Also, the “MIC … K. pneumoniae KPC-2 + 8 μg/mL CAZ” value in test [2] is given as “C (C represents an MIC of <1 μg/mL)”.

Consider `CS(=O)(=O)c1ccc(CC(=O)N[C@@H](Cc2cccc(C(=O)O)c2O)B(O)O)cc1` [Example 62, (1R)-1-(2-(4-(methylsulfonyl)phenyl)-acetylamino)-2-(2-hydroxy-3-carboxyphenyl)ethyl-1-boronic acid], for which the IC50 (at Class A ESBL CTXM-15; on Class A ESBL SHV-5 (setting [5]); on Class C P99 AmpC; in test [3]) was under 10 nM in each case. Moreover, the “MIC … K. pneumoniae CTX-M-15 + 8 μg/mL CAZ” value in test [1] is recorded as “C (C represents an MIC of <1 μg/mL)”. The “MIC … K. pneumoniae KPC-2 + 8 μg/mL CAZ” value in test [2] is listed as “C (C represents an MIC of <1 μg/mL)”.
